Active and inactive are the calls of the source. The rule behind the calls is not given here.
Experiments:
HeLa [1] = experiment: Antiproliferative activity against HeLa cells assessed as cell viability at 5 uM after 48 hrs by MTT assay relative to control; type: functional; conditions: Homo sapiens, read-out: Activity
[2] = Antiproliferative activity against human MCF7/AZ cells assessed as cell viability at 5 uM after 48 hrs by MTT assay relative to control; type: functional; conditions: read-out: Activity
Jurkat [3] = experiment: Antiproliferative activity against human Jurkat cells assessed as cell viability at 5 uM after 48 hrs by MTT assay; type: functional; conditions: read-out: Activity
Jurkat [4] = experiment: Induction of apoptosis in Jurkat cells assessed as cell viability at 5 uM after 48 hrs by flow cytometry Annexin-V/propidium iodide assay; type: functional; conditions: Homo sapiens, read-out: Activity
HeLa [5] = experiment: Growth inhibition of HeLa cells after 48 hrs by MTT assay; type: functional; conditions: Homo sapiens
Jurkat [6] = experiment: Increase in caspase 3 activation in Jurkat cells at 5 uM; type: functional, Homo sapiens; conditions: for Activity: Homo sapiens
Lymphocyte = experiment: Induction of apoptosis in human whole blood lymphocytes after 24 hrs by flow cytometric Annexin-V/propidium iodide assay; type: functional, cell-based
Jurkat [7] = experiment: Effect on apoptosis in Jurkat cells assessed as cleavage of procaspase 3 to active enzyme at 5 uM; type: functional, cell-based; conditions: Homo sapiens
Jurkat [8] = experiment: Effect on apoptosis in Jurkat cells assessed as cleavage of PARP at 5 uM; type: functional, cell-based; conditions: Homo sapiens
Jurkat [9] = experiment: Induction of apoptosis in Jurkat cells after 24 hrs by flow cytometric Annexin-V/propidium iodide assay; type: functional, cell-based; conditions: Homo sapiens
Jurkat [10] = experiment: Effect on apoptosis in Jurkat cells assessed as DNA laddering after 24 hrs; type: functional, cell-based; conditions: Homo sapiens
Jurkat [11] = experiment: Increase in caspase 3 activation in Jurkat cells at 1 uM; type: functional, cell-based; conditions: Homo sapiens
Jurkat [12] = experiment: Effect on apoptosis in Jurkat cells assessed as cleavage of procaspase 3 to active enzyme at 1 uM; type: functional, cell-based; conditions: Homo sapiens
Jurkat [13] = experiment: Effect on apoptosis in Jurkat cells assessed as cleavage of PARP at 1 uM; type: functional, cell-based; conditions: Homo sapiens

Row | Compound | viability at 5 µM (HeLa [1]) | viability at 5 µM [2] | viability at 5 µM (Jurkat [3]) | viability at 5 µM (Jurkat [4]) | other results
1 | Cc1n[nH]c2c1C(c1ccccc1[N+](=O)[O-])C1=C(COC1=O)N2 (centres undefined) | 71% | 99% | 64% | 6% | 
2 | COc1ccc(C2C3=C(COC3=O)Nc3[nH]nc(C)c32)cc1OC (centres undefined) | 73% | 95% | 88% | 5% | 
3 | COc1cc(C2C3=C(COC3=O)Nc3[nH]nc(-c4ccc(Br)cc4)c32)cc(OC)c1OC (centres undefined) | 67% | 98% | 78% | 5% | 
4 | COc1cc(C2C3=C(COC3=O)Nc3c2c(C)nn3C(C)C)cc(OC)c1OC (centres undefined) | 83% | 99% | 77% | 4% | 
5 | COc1cc2c(cc1OC)C(c1cc(OC)c(OC)c(OC)c1)C1=C(O)OCC1=N2 (centres undefined) | 53% | 58% | 35% | 49% | GI50 (HeLa [5]): 6 µM
6 | Cc1n[nH]c2c1C(c1ccc(Cl)c(Cl)c1)C1=C(COC1=O)N2 (centres undefined) | 88% | 56% | 71% | 33% | 
7 | COc1cc(C2C3=C(COC3=O)Nc3[nH]nc(C)c32)cc(Br)c1OC (centres undefined) | 16% | 47% | 29% | 56% | GI50 (HeLa [5]): 0.75 µM; Fold change (Jurkat [6]): 3; Activity (Lymphocyte): inactive
8 | Cc1n[nH]c2c1C(c1cccs1)C1=C(COC1=O)N2 (centres undefined) | 82% | 98% | 74% | 18% | 
9 | Cc1n[nH]c2c1C(c1ccccc1)C1=C(COC1=O)N2 (centres undefined) | 74% | 84% | 87% | 10% | 
10 | CSc1ccc(C2C3=C(COC3=O)Nc3[nH]nc(C)c32)cc1 (centres undefined) | 45% | 95% | 87% | 14% | 
11 | COc1cc(C2C3=C(COC3=O)Nc3[nH]nc(C)c32)cc([N+](=O)[O-])c1O (centres undefined) | 78% | 89% | 90% | 5% | 
12 | Cc1n[nH]c2c1C(c1ccc(OC(F)(F)F)cc1)C1=C(COC1=O)N2 (centres undefined) | 97% | 84% | 97% | 9% | 
13 | COc1cc(C2C3=C(COC3=O)Nc3c2c(C)nn3-c2ccc(C)cc2)cc(OC)c1OC (centres undefined) | 77% | 71% | 77% | 23% | 
14 | Cc1nc2ccccc2nc1C1C2=C(COC2=O)Nc2[nH]nc(C)c21 (centres undefined) | 72% | 100% | 97% | 11% | 
15 | Cc1n[nH]c2c1C(c1ccncc1)C1=C(COC1=O)N2 (centres undefined) | 94% | 100% | 92% | 4% | 
16 | COc1cc(C2C3=C(COC3=O)Nc3[nH]nc(C)c32)cc(Br)c1OC(C)=O (centres undefined) | 47% | 46% | 36% | 58% | GI50 (HeLa [5]): 4 µM; Fold change (Jurkat [6]): 3; Activity (Lymphocyte): inactive
17 | Cc1n[nH]c2c1C(c1ccccc1Br)C1=C(COC1=O)N2 (centres undefined) | 57% | 100% | 90% | 8% | 
18 | COc1cc([C@@H]2c3cc4c(cc3[C@H](O)[C@H]3COC(=O)[C@H]23)OCO4)cc(OC)c1OC [PODOFILOX] | 19% | 55% | 18% | 54% | GI50 (HeLa [5]): 0.02 µM; Activity (Jurkat [6]): Active; Activity (Jurkat [7]): Active; Activity (Jurkat [8]): Active; Activity (Lymphocyte): inactive; Activity (Jurkat [9]): Active
19 | CCOc1c(Br)cc(C2C3=C(COC3=O)Nc3[nH]nc(C)c32)cc1OC (centres undefined) | 52% | 49% | 28% | 49% | GI50 (HeLa [5]): 5 µM; Fold change (Jurkat [6]): 3; Activity (Lymphocyte): inactive
20 | Cc1n[nH]c2c1C(c1ccc(Br)cc1)C1=C(COC1=O)N2 (centres undefined) | 62% | 92% | 90% | 10% | 

Row | Compound | viability at 5 µM (HeLa [1]) | viability at 5 µM [2] | viability at 5 µM (Jurkat [3]) | viability at 5 µM (Jurkat [4]) | other results
21 | COc1cc(C2C3=C(COC3=O)Nc3cc4c(cc32)OCO4)cc(OC)c1OC (centres undefined) | 54% | 52% | 54% | 55% | GI50 (HeLa [5]): 6 µM
22 | COc1cc(C2C3=C(COC3=O)Nc3[nH]nc(C)c32)cc(OC)c1OC (centres undefined) | 50% | 58% | 47% | 55% | GI50 (HeLa [5]): 5 µM; Fold change (Jurkat [6]): 3; Activity (Jurkat [7]): Active; Activity (Jurkat [8]): Active; Activity (Jurkat [10]): Active; Activity (Lymphocyte): inactive; Activity (Jurkat [9]): Active
23 | Cc1n[nH]c2c1C(C)C1=C(COC1=O)N2 (centres undefined) | 70% | 97% | 78% | 5% | 
24 | Cc1n[nH]c2c1C(c1cccc(F)c1)C1=C(COC1=O)N2 (centres undefined) | 99% | 76% | 84% | 28% | 
25 | Cc1n[nH]c2c1C(c1ccc(N(C)C)c(Br)c1)C1=C(COC1=O)N2 (centres undefined) | 55% | 59% | 34% | 41% | GI50 (HeLa [5]): 6 µM; Fold change (Jurkat [6]): 3; Activity (Lymphocyte): inactive
26 | CC[C@]1(O)C[C@@H]2CN(CCc3c([nH]c4ccccc34)[C@@](C(=O)OC)(c3cc4c(cc3OC)N(C)[C@H]3[C@@](O)(C(=O)OC)[C@H](OC(C)=O)[C@]5(CC)C=CCN6CC[C@]43[C@@H]65)C2)C1 |  |  |  |  | Activity (Jurkat [11]): Active; Activity (Jurkat [12]): Active; Activity (Jurkat [13]): Active
27 | C=C(C)[C@@H]1CC=C(C2C3=C(COC3=O)Nc3[nH]nc(C)c32)CC1 (some centres undefined) | 95% | 91% | 89% | 14% | 
28 | Cc1n[nH]c2c1C(c1cccc(Cl)c1)C1=C(COC1=O)N2 (centres undefined) | 43% | 54% | 76% | 28% | GI50 (HeLa [5]): 10 µM; Fold change (Jurkat [6]): 3
29 | Cc1n[nH]c2c1C(c1cccnc1)C1=C(COC1=O)N2 (centres undefined) | 69% | 96% | 88% | 11% | 
30 | COc1cc(C2C3=C(COC3=O)Nc3c2c(C)nn3C)cc(OC)c1OC (centres undefined) | 55% | 98% | 79% | 5% | 
31 | COc1cc2c(c(OC)c1)C(c1cc(OC)c(OC)c(OC)c1)C1=C(COC1=O)N2 (centres undefined) | 55% | 43% | 55% | 55% | 
32 | Cc1n[nH]c2c1C(c1ccsc1)C1=C(COC1=O)N2 (centres undefined) | 98% | 100% | 82% | 6% | 
33 | COc1ccc(C2C3=C(COC3=O)Nc3[nH]nc(C)c32)cc1 (centres undefined) | 73% | 82% | 94% | 11% | 
34 | COc1cc(C2C3=C(COC3=O)Nc3c2c(-c2ccc(Br)cc2)nn3-c2ccccc2)cc(OC)c1OC (centres undefined) | 73% | 90% | 99% | 2% | 
35 | Cc1n[nH]c2c1C(c1cccc(Br)c1)C1=C(COC1=O)N2 (centres undefined) | 51% | 63% | 68% | 58% | GI50 (HeLa [5]): 5 µM; Fold change (Jurkat [6]): 3; Activity (Lymphocyte): inactive; Activity (Jurkat [9]): Active
36 | Cc1n[nH]c2c1C(c1c(C)nc3sccn13)C1=C(COC1=O)N2 (centres undefined) | 84% | 100% | 85% | 7% | Activity (Jurkat [8]): inactive
37 | Cc1n[nH]c2c1C(c1c(C)nn(-c3ccccc3)c1Cl)C1=C(COC1=O)N2 (centres undefined) | 58% | 100% | 94% | 6% | 
38 | Cc1n[nH]c2c1C(c1cc(Br)c(O)c(Br)c1)C1=C(COC1=O)N2 (centres undefined) | 58% | 60% | 58% | 53% | GI50 (HeLa [5]): 8 µM; Fold change (Jurkat [6]): 3; Activity (Lymphocyte): inactive
39 | COc1cc2c(c(OC)c1OC)-c1ccc(OC)c(=O)cc1[C@@H](NC(C)=O)CC2 |  |  |  |  | Activity (Jurkat [6]): Active
